From patent publication US10617682B2 (ROSEMAN UNIVERSITY OF HEALTH SCIENCES, priority 2017, dated 2020)

Columns and labels:
[1] = HPLC potency of freshly prepared solution against USP standard prochlorperazine maleate; format: physicochemical
Description: The mobile phase consisted of the ion-pairing solution, acetonitrile, and methanol (50:40:10). The ion pairing solution was previously prepared by dissolving 4.33 g of sodium-1-octanesulfonic acid and 4.0 mL glacial acetic acid in 1000 mL of water. The chromatographic separation was achieved using a 3.9 mm×15 cm L1 (C18) column with 5 μm particle size. The flow-rate was 1.5 mL per minute and detection wavelength was 254 nm. The HPLC analysis was carried out by injecting 20 μL of sample into the Waters Alliance HPLC with Waters photodiode array (PDA) detector. Data acquisition and analysis was performed using WATERS® EMPOWER 3 software. The HPLC method was validated according to International Council on Harmonization (ICH) guidelines for various parameters including: linearity, accuracy and precision, robustness, and ruggedness.

[2] = oral route; cited from earlier work
[3] = Forced degradation studies by HPLC; format: physicochemical; conditions: 0.1 mg/mL
Description: The specificity of the HPLC method to degradation products was also assessed by subjecting prochlorperazine to various forced degradation conditions such as hydrolysis, oxidation, photodegradation, thermal degradation and UV irradiation.
The HPLC method used in this study was able to resolve prochlorperazine sulfoxide distinctly from prochlorperazine edisylate and trifluoperazine. […] Furthermore, forced degradation studies were also performed to assess any other degradation pathways that may interfere with prochlorperazine assay.

## CN1CCN(CCCN2c3ccccc3Sc3ccc(Cl)cc32)CC1 [prochlorperazine edisylate]
[1]
  potency compared with USP standard prochlorperazine maleate: 99.7±2.3%

## CN1CCN(CCCN2c3ccccc3Sc3ccc(Cl)cc32)CC1 [prochlorperazine, 2-chloro-10-[3-(4-methylpiperazin-1-yl)propyl]phenothiazine]
[2]
  absorption: low and variable absorption
[3]; 0.1 M hydrochloric acid 1 hour
  degradation under acid hydrolysis: did not show prochlorperazine degradation
[3]; 0.1 M hydrogen peroxide overnight
  degradation under oxidation: showed degradation
[3]; 0.1 M sodium hydroxide 1 hour
  degradation under base hydrolysis: did not show prochlorperazine degradation
[3]; 60° C. overnight
  degradation under thermal degradation: did not show prochlorperazine degradation
[3]; laboratory light overnight
  degradation under photodegradation: did not show prochlorperazine degradation
[3]; ultraviolet radiation overnight
  degradation under UV irradiation: showed degradation
